Results taken from patent publication US11726079B2, “Lighting systems and methods of using lighting systems for in vitro potency assay for Photofrin” (Concordia Laboratories, Inc., priority 2012, dated 2023).
Several values for one entry are separate records, joined by “and”; a condition that tells them apart may be missing. Identical values can stand only once. Marks after values point to notes of the source that are not given here.

Test system: A549 human lung carcinoma cells
Assay: In vitro potency assay for Photofrin®: A549 cells, 4 h drug absorption, wash, 10 min irradiation at 400-650 nm, 24 h, XTT viability, 4PL EC50
Format: cell-based
Parameters: key to EC50-XTT / EC50 STD / EC50 Test: EC50 as Photofrin concentration in μg/mL (4PL inflection point)
Conditions: for EC50 STD / EC50 Test: in µg/mL; for EC50 Test / EC50 Test, Mean: Test (35 μg/mL high test drug concentration)
Experimental: Cell passaging of A549 cells is performed using fixed seeding densities to reduce assay variation resulting from cell culture conditions. […] Working in very low light conditions, Photofrin® is reconstituted in normal saline to 2.5 mg/mL and diluted further in culture medium at twice the desired final assay concentration, typically 140 μg/mL. A series of two-fold dilutions were then prepared from the 140 μg/mL solution and the diluted drug was added to the cells at 1:1 (v/v) according to the diagram shown in FIG. 11.
[…] The plate is then removed from the incubator, the drug is aspirated, the wells are washed with Dulbecco's phosphate buffered saline (DPBS) and fresh, pre-warmed medium is added to the wells. […] […] The wells covered with foil strips are important controls for the activity of Photofrin® in the absence of irradiation and the effect of light on the cells in the absence of drug.
The optical absorbance of the wells in column 1 (high drug concentration, no cells) is evaluated for absorption at 450 nm to ensure that the drug is not interfering with the XTT assay. The percent viability of each of the wells in columns 2-9 and 11 is calculated relative to the mean value of column 10 (cell control, no drug, no light). For each dose response obtained, a four parameter logistic (4PL) nonlinear regression analysis is performed of the percent viability versus the log-Photofrin® concentration. The point of inflection of the regression curve (C value) is defined as the EC50 and used in the calculation of relative potency. Curve fitting and calculation of the EC50 is performed with Softmax v5.4.2 (Molecular Devices, Inc.) or Prism v.5.04 (GraphPad, Software Inc.) software. The mean percent viability of columns 9 and 11 is also calculated.
• 1. Materials and Reagents • 1.1. A549 Human Lung Carcinoma (ATCC—Cat. No.: CCL-185) • 1.2. 25 cm^2 Flasks (Corning—Cat. No.: 431463, or equivalent) • 1.3. 75 cm^2 Flasks (Corning—Cat. No.: 431464, or equivalent) • 1.4. 50 mL tubes (Fisher Scientific—Cat. No. 17-512F, or equivalent) • 1.5. Hemacytometer • 1.6. RPMI-1640 (+) phenol red (Lonza—Cat. No.: 12-167F, or equivalent) • 1.7. HI-FBS (Gibco—Life Technologies—Cat No.: 10082-147, or equivalent) • 1.8. 200 mM L-Glutamine (Lonza—Cat. No.: 17-605E, or equivalent) • 1.9. 0.25% Trypsin-EDTA (Gibco—Cat. No.: 25200-056, or equivalent) • 2. Instruments • 2.1. Forma Scientific centrifuge with swinging bucket rotor (Model 5682, or equivalent) • 2.2. Water bath set at 37° C. • 2.3. […] Prepared Reagents • 3.1. RPMI-1640 Complete Media • 3.1.1. 500 mL bottle of RPMI-1640 basal media containing phenol red • 3.1.2. Add 50 mL HI-FBS • 3.1.3. Add 5.5 mL of 200 mM L-Glutamine • 4. Procedure • 4.1. Remove one vial of A549 lung carcinoma cells from liquid nitrogen storage and after ensuring that the vial is tightly closed, rapidly thaw vial by holding all but the top of the vial submerged in a 37° C. water bath until the vial contents begins to thaw but while ice still remains. • 4.2. Liberally spray the vial with 70% ethanol, wipe with tissue, and place into a laminar flow hood. • 4.3. Transfer the contents of the vial to a 50 mL conical tube containing 9 mL RPMI-1640 complete medium containing phenol red (Step 3.1) (hereafter referred to as complete medium in this method). • 4.4. Centrifuge the tube in a swing bucket rotor set at 1200 RPM (220 RCF) for five minutes at room temperature. • 4.5. Discard supernatant and gently flick the tube to resuspend the cells in the residual volume left in the tube. • 4.6. Add 5 mL complete medium, transfer the cell solution to a 25 cm^2 flask, and then place the flask into a 37° C. incubator with 5% CO2. • 4.7. Monitor the flask daily and when the cells reach approximately 80% confluence, remove the media, and wash the cells by adding 2 mL DPBS to the flask. Ensure that all cells are rinsed and discard the DPBS. • 4.8. Add 1 mL 0.25% trypsin-EDTA to prewash the cells, tip flask to coat all cells, and discard the trypsin. • 4.9. […]

ratio of the standard to test sample EC50 (FIG. 12, standard preparation versus preparation containing half of the nominal activity): 0.5
EC50 STD (Standard sample (70 μg/mL high test drug concentration), A549 cells at passage P10): 10.5
EC50 STD (Standard sample (70 μg/mL high test drug concentration), A549 cells at passage P17): 10.1
EC50 STD (Standard sample (70 μg/mL high test drug concentration), Inter-operator Assay, AB-1): 6.37
EC50 STD (Standard sample (70 μg/mL high test drug concentration), Inter-operator Assay, AB-2): 8.23
EC50 STD, Mean (Standard sample (70 μg/mL high test drug concentration), Inter-operator Assay, mean of operator AB plates): 7.3 µg/mL
EC50 STD (Standard sample (70 μg/mL high test drug concentration), Photofrin® absorption time 3.5 hours): 10.4
EC50 STD (Standard sample (70 μg/mL high test drug concentration), absorption time 4.0 hours): 10.2
EC50 STD (Standard sample (70 μg/mL high test drug concentration), absorption time 4.5 hours): 9.23
EC50 STD (Standard sample (70 μg/mL high test drug concentration), irradiation time 8 minutes): 12.0
EC50 STD (Standard sample (70 μg/mL high test drug concentration), irradiation time 9 minutes): 12.0
EC50 STD (Standard sample (70 μg/mL high test drug concentration), irradiation time 10 minutes): 11.1
EC50 STD (Standard sample (70 μg/mL high test drug concentration), irradiation time 11 minutes): 11.6
EC50 STD (Standard sample (70 μg/mL high test drug concentration), irradiation time 12 minutes): 10.8
EC50 STD (Standard sample (70 μg/mL high test drug concentration), operator AB Pilot Assay-1): 6.62
EC50 STD (Standard sample (70 μg/mL high test drug concentration), operator AB Pilot Assay-2): 6.76
EC50 STD (Standard sample (70 μg/mL high test drug concentration), post-irradiation incubation time 22 hours): 9.16
EC50 STD (Standard sample (70 μg/mL high test drug concentration), post-irradiation incubation time 24 hours): 10.2
EC50 STD (Standard sample (70 μg/mL high test drug concentration), post-irradiation incubation time 26 hours): 9.55
EC50 STD (Standard sample (70 μg/mL high test drug concentration), post-irradiation temperature 35° C.): 9.68
EC50 STD (Standard sample (70 μg/mL high test drug concentration), post-irradiation temperature 37° C. (nominal, two experiments)): 10.8 and 9.9
EC50 STD (Standard sample (70 μg/mL high test drug concentration), post-irradiation temperature 39° C.): 8.32
Standard Sample EC50 (Standard sample, 70 μg/mL high test concentration, Plate 1 (placement Standard, Test; left to right dilution; controls in columns 9-11)): 11.1 µg/mL
Standard Sample EC50 (Standard sample, 70 μg/mL high test concentration, Plate 2 (placement Test, Standard; left to right dilution; controls in columns 9-11)): 10.7 µg/mL
Standard Sample EC50 (Standard sample, 70 μg/mL high test concentration, Plate 3 (right to left dilution; controls in columns 9-11)): 11.2 µg/mL
Standard Sample EC50 (Standard sample, 70 μg/mL high test concentration, Plate 4 (placement Standard, Test; left to right dilution; controls in columns 9-11)): 11 µg/mL
Standard Sample EC50 (Standard sample, 70 μg/mL high test concentration, Plate 5 (left to right dilution; controls in columns 2-4)): 10.8 µg/mL
Standard Sample EC50, Mean (Standard sample, 70 μg/mL high test concentration, mean across Plates 1-5 of positional analysis): 11 µg/mL
EC50 Test (A549 cells at passage P10, wide confidence interval due to poor curve fitting): 18.9**
EC50 Test (A549 cells at passage P17): 19.2
EC50 Test (Inter-operator Assay, AB-1): 13.7
EC50 Test (Inter-operator Assay, AB-2): 14.6
EC50 Test, Mean (Inter-operator Assay, mean of operator AB plates): 14.2 µg/mL
EC50 Test, Mean (Inter-operator Assay, mean of operator KP plates): 20 µg/mL
EC50 Test (Inter-operator Assay, operator KP, both plates KP-1): 20.1 and 19.8
EC50 Test (absorption time 3.5 hours): 19.5
EC50 Test (absorption time 4.0 hours): 20.1
EC50 Test (absorption time 4.5 hours): 16.1
EC50 Test (irradiation time 8 minutes): 24.5
EC50 Test (irradiation time 9 minutes): 25.2
EC50 Test (irradiation time 10 minutes): 22.8
EC50 Test (irradiation time 11 minutes): 20.9
EC50 Test (irradiation time 12 minutes): 21.0
EC50 Test (operator AB Pilot Assay-1): 16.1
EC50 Test (operator AB Pilot Assay-2): 12.6
EC50 Test (post-irradiation incubation time 22 hours): 16.7
EC50 Test (post-irradiation incubation time 24 hours): 18.9
EC50 Test (post-irradiation incubation time 26 hours): 16.6
EC50 Test (post-irradiation temperature 35° C.): 21.6
EC50 Test (post-irradiation temperature 37° C. (nominal, two experiments)): 19.9 and 20.0
EC50 Test (post-irradiation temperature 39° C.): 16.1
Substance: porfimer sodium [Photofrin®]
EC50 Test (seeding density 0.8 × 10^4 cells/well): 21.1
EC50 Test (seeding density 1.2 × 10^4 cells/well): 27.9
EC50 Test (seeding density 1.9 × 10^4 cells/well): 21.3
